Laboratory results taken from patent US20220054445A1, “THERAPEUTIC METHODS AND COMPOSITIONS FOR TREATING CANCER USING 6,8-BIS-BENZYLTHIO-OCTANOIC ACID AND AN AUTOPHAGY INHIBITOR” (Rafael Pharmaceuticals, Inc., priority 2018, published 2022).

Key:
K562 and MFL2 AML cells = assay: LC3-II blot for induction of autophagy in AML cells; assay type: cell-based; conditions: CPI-613 200 μM, 4 hours
Excerpt: Complete media (“Full”) and Hank's Balanced Salt Solution medium (HBSS) were used as negative and positive controls of autophagy, respectively.

HS-MM cells [1] = assay: DALGreen autophagy detection in HS-MM cells; assay type: cell-based; conditions: 16 hours
Experimental: HS-MM cells (Sonobe H. et al., J. Pathol., 1993, 169, 317-322; Sonobe H. et al., J. Pathol., 1999, 187, 594-597) were cultured with Dulbecco's modified Eagle's medium (DMEM; Gibco Life Technologies, Grand Island, N.Y., USA) containing 10% heat-inactivated fetal bovine serum (FBS). Cells were incubated with […] autophagy detection agent (Dojindo Co., Kumamoto, Japan) according to the manufacturer's protocol (https://www.dojindo.com/TechnicalManual/Manual_[…].pdf). The […]-treated cells were then incubated with vehicle (DMEM+10% heat-inactivated FBS containing the same amount of DMSO and distilled water present in the corresponding CPI-613 and chloroquine experiments), CPI-613 (added […] of a 5 mg/mL solution of CPI-613 in DMSO per mL of medium to provide a 1 μg/mL concentration of CPI-613 in the medium), or the combination of CPI-613 (1 μg/mL as above) and chloroquine (added 2 μL of a 5 mg/mL solution of chloroquine in distilled water per mL of medium to provide a 10 μg/mL concentration of chloroquine in the medium) at 37° C. under 5% CO2 for 16 hours, and then visualized under a confocal fluorescence microscope (Leica TCS SP8; Leica Corporation, Germany) and analyzed with a Guava Easy-Cyte cell analyzer ([…], Calif., USA).

[2] = system: human H460 NSCLC xenografts; assay: Human non-small cell lung cancer xenograft, oral dosing; assay type: in vivo, CD1-Nu/Nu female mice; conditions: oral 100 mg/kg on day 8, 15, 22, 29 post implantation
Experimental: Human H460 NSCLC cells were obtained from American Type Cell Culture (ATCC) (catalog no. HTB-177, Manassas, Va.). These cells tested negative for viral contamination using the Mouse Antibody Production (MAP) test, performed by Charles River Labs Molecular Division, upon the receipt of the tumor cells from ATCC. The tumor cells were maintained at 37° C. in a humidified 5% CO2 atmosphere in T225 tissue culture flasks containing 50 mL of Roswell Park Memorial Institute (RPMI)-1640 solution with 10% Fetal Bovine Serum (FBS) and 2 mM L-glutamine. Cells were split at a ratio of 1:10 every 2-3 days by trypsinization and resuspended in fresh medium in a new flask. Cells were harvested for experiments in the same way at 70-90% confluency.
CD1-Nu/Nu female mice, ˜4-6 weeks old were obtained from Charles River Laboratories. Mice were housed 5 to a cage in a micro-isolator room in the Department of Animal Laboratory Research of New York State University (SUNY) at Stony Brook. Light-dark cycles were 12 h each daily, with light from 7 a.m. to 7 p.m. […]
An acclimation period of 7 days was allowed between the arrival of the animal at the study site before tumor inoculation and experimentation. […] Tumor dimensions (length and width) were measured daily before, during and after treatment (using Vernier calipers) and the tumor volume was calculated using the prolate ellipsoid formula: (length×width^2)/2. […]

[3] = system: BxPC-3 pancreatic cancer xenografts; assay: Human pancreatic cancer xenograft, oral dosing; assay type: in vivo, CD-1 nude mice; conditions: oral dose of 100 mg/week for 4 weeks
Experimental: An acclimation period of 7 days was allowed between the arrival of the animal at the study site before tumor inoculation and experimentation. Mice were inoculated subcutaneously (SC) in the right flank with 2×10^6 human H460 NSCLC or BxPC3 pancreatic cancer cells that were suspended in 0.1 mL of Dulbeco's Phosphate Buffered Salt (PBS) solution using a 1 cc syringe with a 27-5/8 gauge needle. Tumor dimensions (length and width) were measured daily before, during and after treatment (using Vernier calipers) and the tumor volume was calculated using the prolate ellipsoid formula: (length×width^2)/2. Treatment with test or control articles began 8 days post tumor cell implantation when the tumor was approximately 300 mm^3.
A similar study was conducted in CD-1 nude mice (n=9) inoculated with 2×10^6 BxPC-3 cells. The study was initiated when tumors reached an average size of 150 mm^3 (day 0) and CPI-613 was administered at an oral dose of 100 mg/week for 4 weeks. A comparator arm (n=9) was conducted with IP treatment at a weekly dose of 25 mg/kg.

[4] = Plasma pharmacokinetics and oral bioavailability of formulations; set-up: species or system BALB/c nude mice; conditions: mouse, in vivo
Experimental: Six groups of 16 BALB/c nude mice (8 males and 8 females) per group were administered 6,8-bis-benzylthio-octanoic acid in six different ways: (1) 5 μL/g IV injection (tail vein) of the triethanolamine/dextrose aqueous solution of Example 18 (25 mg/kg; 5 mL/kg; Ex. 18A); (2) 5 μL/g IP injection of the triethanolamine/dextrose aqueous solution of Example 18 (25 mg/kg; 5 mL/kg; 18A); (3) 5 μL/g oral administration of the Eudragit L100 SDD suspension of Example 18 (100 mg/kg; 5 mL/kg; 18B); (4) 5 μL/g oral administration of the HPMCAS-M SDD suspension of Example 18 (100 mg/kg; 5 mL/kg; 18C); (5) 5 μL/g oral administration of the 20 mg/mL 6,8-bis-benzylthio-octanoic acid suspension of Example 18 (100 mg/kg; 5 mL/kg; 18D); or (6) 10 μL/g oral administration of the 10 mg/mL SOLUTOL solution of Example 18 (100 mg/kg; 10 mL/kg; 18E). In each experiment, about 80 μL of blood was collected from one subgroup of 4 male and 4 female mice at 0.083, 1, 4, and 24 hours after dosing, and from the other subgroup of 4 male and 4 female mice at 0.5, 2, and 8 hours. Plasma from the collected blood samples was analyzed by LC-MS/MS for the presence of 6,8-bis-benzylthio-octanoic acid.

[5] = Animal studies of IV administration (toxicity); assay type: in vivo
Experimental: CPI-613 must be administered IV, via an IV catheter that is free flowing and free of air in the dead space of the IV catheter, to minimize vascular irritation, inflammation and acute toxicity of CPI-613. […] To avoid local reactions at and around the site of administration, CPI-613 must be administered via a central venous catheter.
CPI-613 must not be administered as a bolus, but by infusion, at a rate of ˜0.5 mL/min, via a central venous catheter with D5W running at a rate of about 125-150 mL/hr. This is to minimize potential acute toxicity of CPI-613, according to animal studies.

[6] = Pardee et al., Clin Cancer Res. 2014; cited from earlier work
HS-MM cells [7] = assay: Annexin V / propidium iodide cell death staining in HS-MM cells; assay type: cell-based; conditions: necrostatin-1 5, 10 or 50 μM with CPI-613 1 μg/mL + chloroquine 10 μg/mL
Experimental: HS-MM cells (Sonobe H. et al., J. Pathol., 1993, 169, 317-322; Sonobe H. et al., J. Pathol., 1999, 187, 594-597) were cultured with Dulbecco's modified Eagle's medium (DMEM; Gibco Life Technologies, Grand Island, N.Y., USA) containing 10% heat-inactivated fetal bovine serum (FBS). Cells were incubated with vehicle (DMEM+10% heat-inactivated FBS containing the same amount of DMSO and distilled water present in the corresponding CPI-613, chloroquine, and necrostatin-1 experiments), chloroquine (10 μg/mL), CPI-613 (1 μg/mL or 10 μg/mL), the combination of chloroquine (10 μg/mL) and CPI-613 (100 ng/mL, 1 μg/mL, or 10 μg/mL), or the combination of chloroquine (10 μg/mL) and CPI-613 (1 μg/mL) in the presence of necrostatin-1 (5 μM, 10 μM, or 50 μM), and then double stained with a fluorescein isothiocyante (FITC)-conjugated Annexin V and propidium iodide (PI) (PromoCell GMbH, Heidelberg, Germany) followed by analysis with a confocal fluorescence microscope and cell analyzer. The chloroquine and CPI-613 were added to the media from 5 mg/mL stock solutions in distilled water or DMSO, respectively, as in Example 11. The necrostatin-1 was added to the media from a 5 mg/mL stock solution in DMSO.

O=C(O)CCCCC(CCSCc1ccccc1)SCc1ccccc1 (stereo not shown) [6,8-bis-benzylthio-octanoic acid]
induction of autophagy (LC3-II blot) (K562 and MFL2 AML cells): induces autophagy in AML cells | induction of autophagy (DALGreen fluorescence) (HS-MM cells [1]; CPI-613 1 μg/mL): induces autophagy in HS-MM cells | tumor growth versus 5% dextrose or untreated [2]: grew much more slowly | tumor growth effect [3]: especially pronounced | oral bioavailability (conclusion in words) [4]: orally bioavailable | acute toxicity with extra air in dead space of IV catheter ([5]; accidental co-administration of air during IV administration, animal studies): potential to induce acute toxicity | local reaction on leakage into the perivascular space ([5]; in vivo, iv): can induce significant local inflammation | half-life after IV dosing [6]: 1 to 2 h

CN1C(=O)C(Cc2c[nH]c3ccccc23)NC1=S (stereo not shown) [necrostatin-1]
effect on cell death induced by CPI-613 plus chloroquine (HS-MM cells [7]): did not affect cell death

CCN(CC)CCCC(C)Nc1ccnc2cc(Cl)ccc12 (stereo not shown) [chloroquine, reference compound]
blocking of CPI-613 autophagy induction (HS-MM cells [1]; chloroquine 10 μg/mL with CPI-613 1 μg/mL): autophagy induction can be blocked
